Like-named read-outs stand apart in the source and are kept apart here.
How the values were obtained:
[1] = Dissolution profiles of the hot melt extrusion formulations, Non-Sink conditions (HCL 0.1N, pH 1.2); format: physicochemical; conditions: for % dissolved (pH 1.2): Non-Sink, HCL 0.1N pH 1.2, paddles 50 rpm, 1000 ml, 37° C.
Source text: (§1) A mixture has been prepared during two minutes in proportion as described in Table 4. The “Hot Melt Extrusion” formulations, in percentage, have been developed for each series.
(§2) The mixture has been loaded in an extruder and the temperature has been adjusted according to the type of polymer used, as described below:
(§3) The obtained extrudates have been cooled at room temperature and milled. The particle size has then been homogenized. A powder has been obtained which has then been dosified in capsules for administration
(§4) The dissolution apparatus used was HANSON […]. SR8 PLUS, the UV spectrophotometer HEWLET PACKARD 8452.
In the NON-SINK conditions, the active ingredient concentration in the dissolution medium is above the saturation concentration, i.e. the active ingredient is in a medium in which it is not soluble.
The conditions used for the Non-Sink assays were:
Dissolution medium: HCL 0.1N, pH 1.2
(§5) Vessel temperature 37° C.

[2] = Dissolution profiles of the hot melt extrusion formulations, Sink conditions (HCL 0.1N, pH 1.2 + Sodium Lauryl Sulfate 0.1%); format: physicochemical; conditions: for % dissolved (pH 1.2 SLS 0.1%): Sink, HCL 0.1N pH 1.2 + SLS 0.1%, paddles 50 rpm, 1000 ml, 37° C.
Source text: as §1, §2, §3, §4
In the SINK conditions, the active ingredient concentration in the dissolution medium is below 20% of the saturation concentration, i.e. the active ingredient will dissolve easily in the medium.
The conditions used for the Sink assays were:
Dissolution medium: HCL 0.1N, pH 1.2+Sodium Lauryl Sulfate 0.1%
as §5

[3] = Pharmacokinetic study in rats, plasma levels of the (4S,5S) cis enantiomer by chiral LC-MS/MS; format: in vivo, male Wistar Hannover rats; conditions: for Vd: male, rat
[4] = Solubility increase (Δ) = FD60 min formulation/FD % 60 min (drug), FD = dissolved drug fraction
[5] = Wistar Hannover (HSDHan:WIST), po, 20 mg/kg, male rat, single dose, fasting, analyte (4S,5S) cis enantiomer in plasma, suspension = active alone in 5% arabic gum, HME = example 15
[6] = Wistar Hannover, plasma, iv, 1 mg/kg, male rat, solution

## C[C@@H]1C(C(=O)NN2[C@H](C)CCC[C@@H]2C)=NN(c2ccc(Cl)cc2Cl)[C@@H]1c1ccc(Cl)cc1 [(4S,5S) cis enantiomer, (4S,5S)-5-(4-chlorophenyl)-1-(2,4-dichlorophenyl)-N-(cis-2,6-dimethylpiperidin-1-yl)-4-methyl-4,5-dihydro-1H-pyrazole-3-carboxamide]
[1]; [4]
  Increase (Δ) 60 min. Non Sink Conditions: 0.00
[1]; time 0 min
  % dissolved (pH 1.2): 0.0%
[1]; time 5 min
  % dissolved (pH 1.2): 2.2%
[1]; time 10 min
  % dissolved (pH 1.2): 1.9%
[1]; time 15 min
  % dissolved (pH 1.2): 1.4%
[1]; time 20 min
  % dissolved (pH 1.2): 1.5%
[1]; time 30 min
  % dissolved (pH 1.2): 1.6%
[1]; time 45 min
  % dissolved (pH 1.2): 2.7%
[1]; time 60 min
  % dissolved (pH 1.2): 2.9%
[2]; [4]
  Increase (Δ) 60 min. Sink Conditions: 0.00
[2]; time 0 min
  % dissolved (pH 1.2 SLS 0.1%): 0.0%
[2]; time 5 min
  % dissolved (pH 1.2 SLS 0.1%): 4.1%
[2]; time 10 min
  % dissolved (pH 1.2 SLS 0.1%): 6.5%
[2]; time 15 min
  % dissolved (pH 1.2 SLS 0.1%): 11.8%
[2]; time 20 min
  % dissolved (pH 1.2 SLS 0.1%): 16.0%
[2]; time 30 min
  % dissolved (pH 1.2 SLS 0.1%): 24.3%
[2]; time 45 min
  % dissolved (pH 1.2 SLS 0.1%): 37.8%
[2]; time 60 min
  % dissolved (pH 1.2 SLS 0.1%): 53.0%
[3]; [5]
  AUC(0-t): 374 ng·h/mL
  Tmax: 6 h
[3]; Wistar Hannover (HSDHan:WIST), po, 20 mg/kg, male rat, single dose, fasting, analyte (4S,5S) cis enantiomer in plasma, suspension = active alone in 5% arabic gum, HME = example 15, read-out: Cmax
  Cmax: 103 ng/mL
[3]; [6]
  AUC(0-inf): 559 ng·h/mL
  AUC(0-t): 534 ng·h/mL
  clearance: 30 mL/min/kg
  half-life: 8.2 h
[3]; Wistar Hannover, plasma, iv, 1 mg/kg, male rat, solution, read-out: Cmax (C0 for intravenous)
  Cmax: 828 ng/mL
[3]; Wistar Hannover, plasma, iv, 1 mg/kg, iv, 1 mg/kg, solution, read-out: Vd
  Vd: 21.1 L/kg
[3]; Wistar Hannover, plasma, iv, 1 mg/kg, iv, 1 mg/kg, solution, read-out: Vss
  Vd: 8.7 L/kg
[3]; po, 20 mg/kg, male rat, versus iv 1 mg/kg solution, suspension = active alone in 5% arabic gum, HME = example 15
  F (Absolute bioavailability estimated from AUC0-t): 3.5%
